Source: patent US11918662B2, “Heterocyclic compounds and imaging agents for imaging huntingtin protein” (CHDI Foundation, Inc., priority 2020, dated 2024)
Read-outs that look alike come from different tables or passages of the source.

Target: T1, MBP-HTT(1-89)Q46-His(6×) (“Exon1-Q46”) protein aggregates (Homo sapiens, UniProt P42858, INS38QQQQQQQQQQQQQQQQQQQQQQQQQ)
T1 construct: MBP-HTT(1-89)Q46-His(6×); His(6×) (C); made in house
Experiment: Exon1-Q46 Radioligand Binding Assay
Method: Exon1-Q46 Radioligand Binding Assay
For experiments 30 μM MBP-Exon1-Q46 was incubated with 150 μg/mL thrombin in assay buffer (150 mM NaCl, 50 mM Tris pH 8.0) and 2 mM CaCl2 for 16 hours at 37° C. Aggregated Exon1-Q46 was pelleted by centrifugation for 5 minutes at 13,000 rpm in a bench top centrifuge and re-dissolved in the same volume of assay buffer. […] For the RBA, Q46 protein aggregates and test compounds were pre-incubated in assay buffer for 20 minutes at room temperature, in 100 μL/well in a 96-well plate (pp, round bottom). Then, ligand was added in 50 μL/well and incubated for 60 minutes at 37° C. Final assay concentrations were […] test compound, 1 μM Exon1-Q46 protein (equivalent monomer concentration) and 0.3 nM ligand [^3H3-methyl]-5-((5-methoxypyridin-2-yl)methoxy)-2-(pyrazin-2-yl)benzo[d]oxazole. Samples were transferred onto GF/B filter plates and washed 2× with 200 μL PBS using a Filtermate Harvester. After drying filter plates for 1 hour at 55° C., the back of the plates were sealed with foil and 30 μL/well scintillation fluid (Packard MicroScint 40) added, incubated for 15 minutes in the dark and counted in a MicroBeta reader. […] IC50 values were determined with a sigmoidal inhibition model with four variables (top, bottom, slope, IC50) in a global fit using the normalized replicate data.

[1] = displacement of 0.3 nM [3H3-methyl]-5-((5-methoxypyridin-2-yl)methoxy)-2-(pyrazin-2-yl)benzo[d]oxazole from 1 μM aggregated Exon1-Q46, 60 minutes at 37° C., read-out: Potency Range (IC50)

T1 sequence (P42858 with tags, fused parts or gaps with the stated changes limits assumed): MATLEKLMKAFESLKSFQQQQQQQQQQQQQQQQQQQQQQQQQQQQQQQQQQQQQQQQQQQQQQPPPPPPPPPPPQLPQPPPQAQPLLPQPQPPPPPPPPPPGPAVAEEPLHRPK

| SMILES | IC50 [1] [nM] | IC50 [nM] |
| --- | --- | --- |
| O=C(CCn1c(=O)c2cccn2c2ccc(F)cc21)Nc1ccncc1 [Example 3-18] | < 100 |  |
| O=C(CCn1c(=O)c2cccn2c2ccc(F)cc21)Nc1ccccn1 [Example 3-19] | < 100 |  |
| COc1cccc(NC(=O)CCn2c(=O)c3cccn3c3ccc(F)cc32)c1 [Example 3-20] | < 100 |  |
| Cc1cccc(NC(=O)CCn2c(=O)c3cccn3c3ccc(F)cc32)c1 [Example 3-21] | < 100 |  |
| O=C(CCn1c(=O)c2cccn2c2ccc(F)cc21)Nc1ccccc1 [Example 3-22] | < 100 |  |
| O=C(CCn1c(=O)c2cccn2c2ccc(F)cc21)Nc1cccnc1 [Example 3-23] | < 100 |  |
| Cc1ccc(NC(=O)CCn2c(=O)c3cccn3c3ccc(F)cc32)nc1 [Example 3-24] | < 100 |  |
| O=C(CCn1c(=O)c2cccn2c2ccc(F)cc21)Nc1cccc(Cl)c1 [Example 3-25] | < 100 |  |
| O=C(CCn1c(=O)c2cccn2c2ccc(F)cc21)Nc1ccc(Cl)cc1 [Example 3-26] | < 100 |  |
| Cc1ccccc1NC(=O)CCn1c(=O)c2cccn2c2ccc(F)cc21 [Example 3-27] | < 100 |  |
| O=C(CCn1c(=O)c2cccn2c2ccc(F)cc21)NCc1ccccc1 [Example 3-28] | < 100 |  |
| COC1CCC(NC(=O)CCn2c(=O)c3cccn3c3ccc(F)cc32)CC1 (stereo not drawn) [Example 3-29] | < 100 |  |
| O=C(CCn1c(=O)c2cccn2c2ccc(F)cc21)NCCc1ccccc1 [Example 3-30] | < 100 |  |
| O=C(CCn1c(=O)c2cccn2c2ccc(F)cc21)N1Cc2ccccc2C1 [Example 3-31] | < 100 |  |
| CC1CCC(NC(=O)CCn2c(=O)c3cccn3c3ccc(F)cc32)CC1 (stereo not drawn) [Example 3-32] | < 100 |  |
| O=C(CCn1c(=O)c2cccn2c2ccc(F)cc21)NCCc1cccnc1 [Example 3-33] | < 100 |  |
| O=C(CCn1c(=O)c2cccn2c2ccc(F)cc21)NC1CCCCC1 [Example 3-34] | < 100 |  |
| O=C(CCn1c(=O)c2cccn2c2ccc(F)cc21)NCC1CCCCC1 [Example 3-35] | < 100 |  |
| CN(C)C(=O)CCn1c(=O)c2cccn2c2ccc(F)cc21 [Example 3-36] | < 100 |  |
| O=C(CCn1c(=O)c2cccn2c2ccc(F)cc21)NC1CCCC1 [Example 3-37] | < 100 |  |
| CCNC(=O)CCn1c(=O)c2cccn2c2ccc(F)cc21 [Example 3-38] | < 100 |  |
| CN(C)CCNC(=O)CCn1c(=O)c2cccn2c2ccc(F)cc21 [Example 3-39] | 100 to 500 |  |
| COC1CCN(C(=O)CCn2c(=O)c3cccn3c3ccc(F)cc32)C1 (stereo not drawn) [Example 3-40] | < 100 |  |
| O=C(CCn1c(=O)c2cccn2c2ccc(F)cc21)N1CCCC(C(F)(F)F)C1 (stereo not drawn) [Example 3-41] | < 100 |  |
| O=C(CCn1c(=O)c2cccn2c2ccc(F)cc21)N1CCC(C(F)(F)F)CC1 [Example 3-42] | < 100 |  |
| O=C(CCn1c(=O)c2cccn2c2ccc(F)cc21)N1CCCC1 [Example 3-43] | < 100 |  |

| SMILES | IC50 [1] [nM] | IC50 [nM] |
| --- | --- | --- |
| O=C(CCn1c(=O)c2cccn2c2ccc(F)cc21)N1CCc2ccccc2C1 [Example 3-44] | < 100 |  |
| CC1CCC(N(C)C(=O)CCn2c(=O)c3cccn3c3ccc(F)cc32)CC1 (stereo not drawn) [Example 3-45] | < 100 |  |
| O=C(CCn1c(=O)c2cccn2c2ccc(F)cc21)N1CCc2ccccc21 [Example 3-46] | < 100 |  |
| O=C(CCn1c(=O)c2cccn2c2ccc(F)cc21)N1CCCc2ccccc21 [Example 3-47] | < 100 |  |
| COc1cc2c(cn1)CCN(C(=O)CCn1c(=O)c3cccn3c3ccc(F)cc31)C2 [Example 3-48] | < 100 |  |
| Cn1c2c(ccc1=O)CN(C(=O)CCn1c(=O)c3cccn3c3ccc(F)cc31)CC2 [Example 3-49] | < 100 |  |
| O=C(CCn1c(=O)c2cccn2c2ccc(F)cc21)N1CCc2ncccc2C1 [Example 3-50] | < 100 |  |
| O=C(CCn1c(=O)c2cccn2c2ccc(F)cc21)N1CCc2cnccc2C1 [Example 3-51] | < 100 |  |
| O=C(CCn1c(=O)c2cccn2c2ccc(F)cc21)N1CCc2ccncc2C1 [Example 3-52] | < 100 |  |
| O=C(CCn1c(=O)c2cccn2c2ccc(F)cc21)N1CCc2cccnc21 [Example 3-53] | < 100 |  |
| O=C(CCn1c(=O)c2cccn2c2ccc(F)cc21)N1Cc2ccncc2C1 [Example 3-54] | < 100 |  |
| O=C(CCn1c(=O)c2cccn2c2ccc(F)cc21)N1Cc2cccnc2C1 [Example 3-55] | < 100 |  |
| O=C(CCn1c(=O)c2cccn2c2ccc(F)cc21)N1CCc2cccnc2C1 [Example 3-56] | < 100 |  |
| O=C(CCn1c(=O)c2cccn2c2ccc(F)cc21)N1CCc2ccncc21 [Example 3-57] | < 100 |  |
| O=C(CCn1c(=O)c2cccn2c2ccc(F)cc21)N1CCc2cnccc21 [Example 3-58] | < 100 |  |
| O=C(CCn1c(=O)c2cccn2c2ccc(F)cc21)N1CCc2ncccc21 [Example 3-59] | < 100 |  |
| COc1ccc(NC(=O)CCn2c(=O)c3c(C)ccn3c3ccc(F)cc32)nc1 [Example 3-60] | < 100 |  |
| COc1ccc(NC(=O)CCn2c(=O)c3c(Cl)ccn3c3ccc(F)cc32)nc1 [Example 3-61] | < 100 |  |
| O=C(CCn1c(=O)c2cc(F)cn2c2ccc(F)cc21)NCc1ccccn1 [Example 3-62] | < 100 |  |
| Cc1ccc(CNC(=O)CCn2c(=O)c3cc(F)cn3c3ccc(F)cc32)nc1 [Example 3-63] | < 100 |  |
| O=C(CCn1c(=O)c2cc(F)cn2c2ccc(F)cc21)N1Cc2ccncc2C1 [Example 3-64] | < 100 |  |
| O=C(CCn1c(=O)c2cc(F)cn2c2ccc(F)cc21)N1Cc2cccnc2C1 [Example 3-65] | < 100 |  |
| COc1ccc(NC(=O)CCn2c(=O)c3cc(F)cn3c3ccc(F)cc32)nc1 [Example 3-66] | < 100 |  |
| COc1ccc(NC(=O)CCn2c(=O)c3cc(C)cn3c3ccc(F)cc32)nc1 [Example 3-67] | < 100 |  |
| Cc1ccc(NC(=O)CCn2c(=O)c3cccn3c3ccccc32)cn1 [Example 3-68] | < 100 |  |
| Cc1ccc(NC(=O)CCNc2cc(F)ccc2-n2cccn2)cc1 [Example 3-69] | 100 to 500 |  |

| SMILES | IC50 [1] [nM] | IC50 [nM] |
| --- | --- | --- |
| Cc1ccc(NC(=O)CCCn2c(=O)c3cccn3c3ncccc32)cc1 [Example 4-1] | < 100 |  |
| COc1ccc(NC(=O)CCCn2c(=O)c3cccn3c3ncccc32)cc1 [Example 4-2] | < 100 |  |
| COc1cccc(NC(=O)CCCn2c(=O)c3cccn3c3ncccc32)c1 [Example 4-3] | < 100 |  |
| COc1ccnc(NC(=O)CCCn2c(=O)c3cccn3c3ncccc32)c1 [Example 4-4] | < 100 |  |
| COc1cccc(NC(=O)CCCn2c(=O)c3cccn3c3cccnc32)c1 [Example 4-5] | < 100 |  |
| Cc1ccc(NC(=O)CCCn2c(=O)c3cccn3c3cccnc32)cc1 [Example 4-6] | < 100 |  |
| COc1ccc(NC(=O)CCCn2c(=O)c3cccn3c3cccnc32)cc1 [Example 4-7] | < 100 |  |
| COc1ccnc(NC(=O)CCCn2c(=O)c3cccn3c3cccnc32)c1 [Example 4-8] | < 100 |  |
| COc1ccc(NC(=O)CCCn2c(=O)c3cccn3c3cccnc32)nc1 [Example 4-9] | < 100 |  |
| O=C(CCCn1c(=O)c2cccn2c2cccnc21)NC1CCCCCC1 [Example 4-10] | < 100 |  |
| Cc1ccc(NC(=O)CCCn2c(=O)c3cccn3c3ccccc32)cc1 [Example 5-1] | < 100 |  |
| COc1ccc(NC(=O)CCCn2c(=O)c3cccn3c3ccccc32)cc1 [Example 5-2] | < 100 |  |
| COc1cccc(NC(=O)CCCn2c(=O)c3cccn3c3ccccc32)c1 [Example 5-3] | < 100 |  |
| COc1ccnc(NC(=O)CCCn2c(=O)c3cccn3c3ccccc32)c1 [Example 5-4] | < 100 |  |
| COc1ccc(NC(=O)CCCn2c(=O)c3cccn3c3ccccc32)nc1 [Example 5-5] |  | < 100 |
| COc1ccc2c(c1)n(CCCC(=O)Nc1ccc(C)cc1)c(=O)c1cccn12 [Example 5-6] | < 100 |  |
| COc1ccc(NC(=O)CCCn2c(=O)c3cccn3c3ccc(OC)cc32)cc1 [Example 5-7] | < 100 |  |
| COc1cccc(NC(=O)CCCn2c(=O)c3cccn3c3ccc(OC)cc32)c1 [Example 5-8] | < 100 |  |
| COc1ccc(NC(=O)CCCn2c(=O)c3cccn3c3ccc(OC)cc32)nc1 [Example 5-9] | < 100 |  |
| COc1ccnc(NC(=O)CCCn2c(=O)c3cccn3c3ccc(OC)cc32)c1 [Example 5-10] | < 100 |  |
| COc1cccc(NC(=O)CCCn2c(=O)c3nccn3c3ccc(F)cc32)c1 [Example 5-11] | < 100 |  |
| Cc1ccc(NC(=O)CCCn2c(=O)c3nccn3c3ccc(F)cc32)cc1 [Example 5-12] | < 100 |  |
| COc1ccnc(NC(=O)CCCn2c(=O)c3nccn3c3ccc(F)cc32)c1 [Example 5-13] | 100 to 500 |  |
| COc1ccc(NC(=O)CCCn2c(=O)c3nccn3c3ccc(F)cc32)nc1 [Example 5-14] | < 100 |  |
| O=C(CCCn1c(=O)c2cccn2c2ccccc21)NC1CCCCCC1 [Example 5-15] | 100 to 500 |  |
| O=C(CCCn1c(=O)c2cccn2c2ccccc21)N1CCCCC1 [Example 5-18] | < 100 |  |
